Results from patent US20160279187A1, “CALPAIN INHIBITORS FOR IBD AND COLORECTAL CANCER TREATMENT” (UNIVERSITY OF HAWAII, priority 2013, published 2016).
Where a SMILES comes first, the peptide text is derived from it. The star is where a group is joined. Cbz = O=C(OCc1ccccc1)*; CH2F = FC*

Target: T1, M-Calpain activity in HT-29 cells (Homo sapiens, UniProt P17655)
T1 construct: endogenous in cells; host or cells: HT-29 human colorectal cancer cells
T1 sequence (P17655 20-700 limits assumed): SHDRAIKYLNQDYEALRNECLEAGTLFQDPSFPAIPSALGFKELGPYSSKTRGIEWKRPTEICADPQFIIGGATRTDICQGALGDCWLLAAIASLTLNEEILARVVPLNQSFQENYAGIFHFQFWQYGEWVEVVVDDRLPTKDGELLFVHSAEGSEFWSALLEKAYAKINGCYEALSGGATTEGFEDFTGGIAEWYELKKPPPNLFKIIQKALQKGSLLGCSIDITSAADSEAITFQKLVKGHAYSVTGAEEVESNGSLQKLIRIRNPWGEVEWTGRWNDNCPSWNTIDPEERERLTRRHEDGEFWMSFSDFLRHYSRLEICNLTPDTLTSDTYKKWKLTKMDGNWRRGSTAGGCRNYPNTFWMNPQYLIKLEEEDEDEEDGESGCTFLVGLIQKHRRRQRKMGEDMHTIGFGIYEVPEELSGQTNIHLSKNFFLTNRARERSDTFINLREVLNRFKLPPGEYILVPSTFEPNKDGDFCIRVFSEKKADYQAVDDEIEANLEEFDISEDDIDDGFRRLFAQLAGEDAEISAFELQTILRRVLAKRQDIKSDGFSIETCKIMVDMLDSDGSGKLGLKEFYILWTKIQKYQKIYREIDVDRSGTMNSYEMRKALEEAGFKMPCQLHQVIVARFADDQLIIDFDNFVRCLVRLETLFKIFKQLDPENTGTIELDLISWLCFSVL
T1 sequence (P04632 1-268 partner): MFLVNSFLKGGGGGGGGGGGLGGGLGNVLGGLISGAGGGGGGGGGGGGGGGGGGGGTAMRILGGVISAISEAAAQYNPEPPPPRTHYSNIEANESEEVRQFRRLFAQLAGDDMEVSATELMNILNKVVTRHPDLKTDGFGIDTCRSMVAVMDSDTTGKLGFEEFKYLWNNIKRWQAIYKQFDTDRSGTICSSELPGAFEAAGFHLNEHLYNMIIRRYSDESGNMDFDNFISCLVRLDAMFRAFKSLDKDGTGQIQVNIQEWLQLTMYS
Assay: Calpain Activity Assay Kit (BioVision), HT-29
Assay type: cell-based
Conditions: HT-29, vs DMSO, 1 hour
Description: Bone marrow derived macrophages (BMDM) were prepared as previously described by methods known to those skilled in the art. On day 5 of culture, 2×10^6 BMDM were seeded in 6-well plates and the following day were primed for 18 h with TNFα (20 ng/mL), followed by 1 h stimulation with E. faecalis (1 μg/mL; ATCC). Stimulation with E. faecalis was conducted in the presence of the zLLY-CH2F calpain-2 inhibitor (20 μg/mL) or DMSO as a control. Media was removed from treated BMDM, centrifuged at 300×g for 5 min and supernatent analyzed using the Cytometric Bead Array Mouse Inflammation Kit (BD Biosciences, San Jose, Calif.). Cytokine data were analyzed using Flowjo software (Ashland, Oreg.) and GraphPad Prism version 4.0 (GraphPad, La Jolla, Calif.). Cell pellets were lysed and analyzed for IκB and NFκB by Western blot as previously described (Miyazaki, T. et al. Journal of Atherosclerosis and Thrombosis 20, 228-237, 2013). […] Each day 4 wells were quantified using Celltiter MTS reagent (Promega) and the resulting signal was used to generate a proliferation curve. Calpain activity was measured using a Calpain activity assay kit (BioVision, Inc., Milpitas, Calif.) as previously described. Colons were harvested on day 4 and calpain activity measured. […]

Question: With `CC(C)C[C@H](NC(=O)OCc1ccccc1)C(=O)N[C@@H](CC(C)C)C(=O)N[C@@H](Cc1ccc(O)cc1)C(=O)CF` [zLLY-CH2F, Z-LLY-CH2F] (Cbz-Leu-Leu-Tyr-CH2F) as the compound, how does the M-Calpain activity read?
Answer: The M-Calpain activity was “reduced”.
